Data published in patent US20130344501A1, “METHODS FOR PRODUCING THREE-DIMENSIONAL PHYSIOLOGICALLY RELEVANT IMMUNE TISSUE SYSTEMS UNDER LOW FLUID SHEAR CONDITIONS” (priority 2010, published 2013).

Tests used:
U937 cells = assay: Phagocytosis of 2 μm fluorescent beads by PMA-differentiated U937 macrophages; assay type: cell-based, human; settings: U937 monocytes exposed to 10^−8M PMA for 48 hours; undifferentiated monocytes could not phagocytose
Experimental: (§1) To obtain differentiated macrophages, U937 monocytes were exposed to 10^−8M PMA (originating from a 10^−3M stock in DMSO) (Sigma-Aldrich) for 48 hours. Exposure of monocytes to phorbol esters induces morphological, physiological and molecular characteristics of terminally differentiated macrophages (Rovera et al., 1979, Prieto et al., 1994). For CLSM staining purposes, monocytes were differentiated with PMA and A549 cells were grown in 6-well plates containing sterile coverslips. For CLSM staining of undifferentiated U937, cytodex-3 beads (5 mg/ml) were added to the culture medium, allowing adhesion of U937 to the beads and facilitation of the staining procedure.
The phagocytosis activity of monocytes and macrophages cultured alone or co-cultured with A549 cells in three-dimensional was assessed based on the uptake of bacterial-sized 2 μm fluorescent […] beads (Fluoresbrite plain YG, Polysciences). The phagocytosis assay was performed as previously described (Gao et al., 2010).

ICAM-1 on U937 cells = assay: ICAM-1 labeling of PMA-differentiated U937 macrophages, confocal laser scanning microscopy; assay type: cell-based, human; settings: U937 monocytes exposed to 10^−8M PMA for 48 hours; monocytes alone stained weakly positive
Experimental: as §1
The antibodies used for CLSM imaging in the present study were from mouse origin and targeted the human CD45 (Abcam), ICAM-1 (Abcam), MUC5AC (Invitrogen), ZO-1 (Invitrogen) and β-catenin (Chemicon). All primary antibodies were used in a dilution of 1:50. ICAM-1 was the only directly labeled antibody used for CLSM staining and was conjugated with phycoerythrin (PE). […]
Optical sections of the three-dimensional aggregates and monolayers were obtained using a Zeiss LSM 510 Duo laser scanning microscope equipped with detectors and filter sets for monitoring emissions of the selected fluorophores. Images were acquired using a Plan-Neofluar 40×/1.3 oil DIC objective and were analyzed with the Zeiss LSM software package. […]

CCCCCCCCCCCCCC(=O)O[C@@H]1[C@@H](C)[C@@]2(O)[C@@H](C=C(CO)C[C@]3(O)C(=O)C(C)=C[C@@H]23)[C@@H]2C(C)(C)[C@]12OC(C)=O [PMA, phorbol 12-myristate 13-acetate]
phagocytosis of 2 μm fluorescent beads (U937 cells): engulfment of one-to-multiple beads
ICAM-1 labeling of differentiated macrophages (ICAM-1 on U937 cells): strong ICAM-1 labeling
